The experiment has as its target T1, MyD88^TIR (Homo sapiens, UniProt Q99836).
T1 construct: MyD88 (residues 148–296); 6xHis; made in house; host or cells: E. coli BL21 (DE3)
The experiment in a line: T‐Surf phage library (P8 and P3) selection against MyD88^TIR, four rounds, NGS read counts. In kind it is binding. As to conditions: for P3_MyD88 Rank (after) / P3_MyD88 Rank (before): P3 library; for P8_MyD88 Rank (after) / P8_MyD88 Rank (before): P8 library; for Population: 4th round of selection against MyD88 TIR, share of NGS reads. In a few lines: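 Coat TIR domain 5 µg mL^−1 overnight; block 0.2% BSA/PBS 1 h, 4 °C; add phage library 1 h, RT; wash ×4 PBS/0.5% Tween‐20; elute 100 mM HCl, neutralize Tris; amplify in TG1, PEG‐precipitate. Repeat to round 4; barcode PCR, NovaSeq, count reads.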

Where [1] appears, read: P8_MyD88: rank by count after grouping.
[2] abbreviates: P8_MyD88: rank by count before grouping.
Where [3] appears, read: P8_MyD88: rank by NGS read count after grouping.
Where [4] appears, read: P8_MyD88: rank by NGS read count before grouping.
[5] abbreviates: selection against MyD88, rank after grouping.
[6] abbreviates: selection against MyD88, rank before grouping.
The mark [7] stands for this setting: selection against MyD88, rank by count after grouping.
[8] abbreviates: selection against MyD88, rank by count before grouping.
[9] abbreviates: P3_MyD88: rank by count after grouping.
[10] abbreviates: P3_MyD88: rank by count before grouping.
Where [11] appears, read: P8_MyD88 pool: P8 T-Surf phage library.
Setting [12] is: selection against MyD88 TIR, rank by count after grouping.
Where [13] appears, read: selection against MyD88 TIR, rank by count before grouping.

T1 sequence (Q99836 148-296): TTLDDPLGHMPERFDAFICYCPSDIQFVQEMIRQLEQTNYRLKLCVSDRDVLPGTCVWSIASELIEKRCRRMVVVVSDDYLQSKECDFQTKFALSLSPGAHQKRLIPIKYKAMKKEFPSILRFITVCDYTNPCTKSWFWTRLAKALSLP

DPQELEWFYERLVSLF: the “Rank (after)” value under setting [1] is reported as 163. Also, under setting [2], the “Rank (before)” value is on record as 745.
With PQDLGWYYERLVSLIL, the “Rank (after)” value under setting [3] is 888. Besides, under setting [4], the “Rank (before)” value was 3421.
Take DPQVRDWFYERAVSLF: under setting [1], the “Rank (after)” value was determined as 452. Moreover, the “Rank (before)” value under setting [2] is recorded as 2660.
With YLKWGYRWYWDRLRFA, the “P3_MyD88 Rank (after)” value under setting [5] is reported as 543. Further, the “P3_MyD88 Rank (before)” value under setting [6] was 1576.
As for WALDELLQILHACEPF, the “P8_MyD88 Rank (after)” value under setting [5] was 524. The “P8_MyD88 Rank (before)” value under setting [6] came out at 1441.
As for DPQDLDLFYERLVSMF, the “P8_MyD88 Rank (after)” value (4R selection against MyD88, rank after grouping) was 673. Also, the “P8_MyD88 Rank (before)” value (4R selection against MyD88, rank before grouping) is 2739.
As for SENYASSSWALTELVH, the “P3_MyD88 Rank (after)” value under setting [7] is 723. Further, under setting [8], the “P3_MyD88 Rank (before)” value is on record as 2958.
For the sequence EWIREQLRPELQERLP, the “Rank (after)” value under setting [9] came out at 179. Moreover, under setting [10], the “Rank (before)” value came to 2160.
For SADYDDVGDRLIRMIE, the “Rank (after)” value under setting [3] is 1024. Moreover, the “Rank (before)” value under setting [4] came out at 3747.
Take YTALSYRGFHDFRGNE: the “P3_MyD88 Rank (after)” value under setting [5] is 504. The “P3_MyD88 Rank (before)” value under setting [6] is reported as 1638.
Regarding YAFTVHLHRYLVQRGG, under setting [9], the “Rank (after)” value turned out to be 448. Further, under setting [10], the “Rank (before)” value was determined as 1482.
Consider WWIQALAEVANMAGED, for which the “Rank (after)” value under setting [1] was found to be 134. Under setting [2], the “Rank (before)” value is on record as 158. Also, under setting [11], the Population is on record as 0.00925%.
YASSSWALEELVKIMEAM: the “Rank (after)” value under setting [1] came out at 454. Further, the “Rank (before)” value under setting [2] turned out to be 1898.
As to SSWREGLCRLLELRNK, under setting [5], the “P3_MyD88 Rank (after)” value is recorded as 501. Moreover, the “P3_MyD88 Rank (before)” value under setting [6] is reported as 3264.
For the sequence DFSHFWLFEARGDA, the “Rank (after)” value under setting [1] is listed as 387. Besides, the “Rank (before)” value under setting [2] came to 2381.
As for DSLFWDRLLYSLHVT, under setting [12], the “P8_MyD88 Rank (after)” value turned out to be 219. Also, the “P8_MyD88 Rank (before)” value under setting [13] amounted to 355.
For DPQARDCFYERLVSLF, the “Rank (after)” value under setting [1] is given as 476. Further, under setting [2], the “Rank (before)” value stood at 2687.
For WLESVLEDKFGYSLAL, the “Rank (after)” value under setting [1] is 110. Further, under setting [2], the “Rank (before)” value is given as 116. The sequence also showed a Population under setting [11] of 0.02%.
Take GFLYHAFAREGIKIFM: the “Rank (after)” value under setting [9] is given as 124. The “Rank (before)” value under setting [10] is 1793.
Turning to DPQDLAWSYERLVSLF, under setting [12], the “P8_MyD88 Rank (after)” value came out at 255. Further, the “P8_MyD88 Rank (before)” value under setting [13] came to 2732.
Regarding LKVEAGVRRWKKRAN, the “Rank (after)” value under setting [9] came out at 114. Further, under setting [10], the “Rank (before)” value is 1074.
The like results for YYLDPSHLRKQSVEFS were, in that order, 473 and 1451.
For the sequence CARDELLQILHARELF, the “Rank (after)” value under setting [3] amounted to 876. Under setting [4], the “Rank (before)” value is 1349.
As to DPQDLDWFYDRLLYSLHVTE, the “Rank (after)” value under setting [1] worked out at 420. Also, the “Rank (before)” value under setting [2] turned out to be 1088.
Consider AHDELWVLRYLLPTLE, for which, under setting [12], the “P8_MyD88 Rank (after)” value came to 205. The “P8_MyD88 Rank (before)” value under setting [13] stood at 304.
For the sequence DPHDPQWFYERLVRLI, the “P8_MyD88 Rank (after)” value under setting [5] turned out to be 495. Further, the “P8_MyD88 Rank (before)” value under setting [6] is reported as 3035.
As to QWALEELRLIMELHSV, the “Rank (after)” value under setting [1] was 158. For the same sequence, the “Rank (before)” value under setting [2] is 175. Further, the Population under setting [11] came to 0.00809%.
For the sequence NDLLHVWSSKANSLVG, under setting [5], the “P3_MyD88 Rank (after)” value was determined as 527. For the same sequence, the “P3_MyD88 Rank (before)” value under setting [6] is recorded as 3389.
Sequence SSFREGMWRLLELSKK had a Population (P3_MyD88 pool: P3 T-Surf phage library) of 0.00408%.
DPQVLERKYERLVKLV: the “P8_MyD88 Rank (after)” value under setting [7] worked out at 718. Further, the “P8_MyD88 Rank (before)” value under setting [8] amounted to 2650.
The like results for DYASNTFLLRELLQIA were, in that order, 746 and 2543.
The like results for PQDLEWFYERGEPDS were, in that order, 751 and 3445.
NPADLDWFYERLVSLF: the “Rank (after)” value under setting [3] stood at 939. For the same sequence, the “Rank (before)” value under setting [4] was 3878.
Turning to LGYHWNDREYFLDIED, under setting [5], the “P8_MyD88 Rank (after)” value is reported as 536. Besides, the “P8_MyD88 Rank (before)” value under setting [6] is given as 3307.
